Test system: MDA-MB-468 spheroids with HUVEC/MSC, viability
Assay: Anticancer human tumor MDA-MB-468 cell line growth inhibition [PI3K];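 note: spheroids exposed to agents for seven days before readout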;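 for viability, T/C: 100% = DMSO vehicle control viability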
Settings: for IC50: curve of first compound; for viability, T/C: stronger effect = lower value; active = viability on the fitted dose curve at most 10% of control; inactive = the rest
Method in brief: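 Viability of mixed-cell spheroids was determined after exposure to pairwise combinations, one partner being inavolisib, alpelisib, duvelisib or copanlisib. Highest tested concentration matched clinical Cmax where known and 10 microM where not, descending in half-log steps.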

[1] = second compound 0.00316 µM, first compound 0.0316 µM
[2] = second compound 0.00316 µM, first compound 0.1 µM
[3] = second compound 0.00316 µM, first compound 0.316 µM
[4] = second compound 0.00316 µM, first compound 1 µM
[5] = second compound 0.00316 µM, first compound 3.16 µM
[6] = second compound 0.00316 µM, first compound 10 µM
[7] = second compound 0.01 µM, first compound 0.0316 µM
[8] = second compound 0.01 µM, first compound 0.1 µM
[9] = second compound 0.01 µM, first compound 0.316 µM
[10] = second compound 0.01 µM, first compound 1 µM
[11] = second compound 0.01 µM, first compound 3.16 µM
[12] = second compound 0.01 µM, first compound 10 µM
[13] = second compound 0.0316 µM, first compound 0.0316 µM
[14] = second compound 0.0316 µM, first compound 0.1 µM
[15] = second compound 0.0316 µM, first compound 0.316 µM
[16] = second compound 0.0316 µM, first compound 1 µM
[17] = second compound 0.0316 µM, first compound 3.16 µM
[18] = second compound 0.0316 µM, first compound 10 µM
[19] = second compound 0.1 µM, first compound 0.0316 µM
[20] = second compound 0.1 µM, first compound 0.1 µM
[21] = second compound 0.1 µM, first compound 0.316 µM
[22] = second compound 0.1 µM, first compound 1 µM
[23] = second compound 0.1 µM, first compound 3.16 µM
[24] = second compound 0.1 µM, first compound 10 µM
[25] = second compound 0.316 µM, first compound 0.0316 µM
[26] = second compound 0.316 µM, first compound 0.1 µM
[27] = second compound 0.316 µM, first compound 0.316 µM
[28] = second compound 0.316 µM, first compound 1 µM
[29] = second compound 0.316 µM, first compound 3.16 µM
[30] = second compound 0.316 µM, first compound 10 µM
[31] = second compound 1 µM, first compound 0.0316 µM
[32] = second compound 1 µM, first compound 0.1 µM
[33] = second compound 1 µM, first compound 0.316 µM
[34] = second compound 1 µM, first compound 1 µM
[35] = second compound 1 µM, first compound 3.16 µM
[36] = second compound 1 µM, first compound 10 µM

CC(Cn1ccc(-c2ccc(C#N)c(Cl)c2)n1)NC(=O)c1cc(C(C)O)[nH]n1 (centres undefined) + CC(Nc1ccc2c(c1)OCCn1cc(N3C(=O)OCC3C(F)F)nc1-2)C(N)=O
> 10 µM: IC50 (second compound 0.00316 µM) | IC50 (second compound 0.01 µM) | IC50 (second compound 0.0316 µM) | IC50 (second compound 0.1 µM) | IC50 (second compound 0.316 µM) | IC50 (second compound 1 µM)
inactive: viability, T/C [1] 104% | viability, T/C [2] 84.3% | viability, T/C [3] 107% | viability, T/C [4] 99.4% | viability, T/C [5] 101% | viability, T/C [6] 88.6% | viability, T/C [7] 102% | viability, T/C [8] 93.8% | viability, T/C [9] 79.3% | viability, T/C [10] 90% | viability, T/C [11] 94.6% | viability, T/C [12] 77.8% | viability, T/C [13] 101% | viability, T/C [14] 79.7% | viability, T/C [15] 92.5% | viability, T/C [16] 90% | viability, T/C [17] 88.4% | viability, T/C [18] 72.1% | viability, T/C [19] 114% | viability, T/C [20] 82.2% | viability, T/C [21] 80.4% | viability, T/C [22] 102% | viability, T/C [23] 94.8% | viability, T/C [24] 65% | viability, T/C [25] 88.5% | viability, T/C [26] 77.7% | viability, T/C [27] 96.1% | viability, T/C [28] 85.1% | viability, T/C [29] 69.9% | viability, T/C [30] 64.5% | viability, T/C [31] 93% | viability, T/C [32] 72.7% | viability, T/C [33] 89% | viability, T/C [34] 78.8% | viability, T/C [35] 66.5% | viability, T/C [36] 68%

CC1(C)CCC(Nc2ncc(C(F)(F)F)c(-c3c[nH]c4c(P(C)(C)=O)c(C#N)ccc34)n2)CN1 (centres undefined) + CC(Nc1ccc2c(c1)OCCn1cc(N3C(=O)OCC3C(F)F)nc1-2)C(N)=O
< 0.0316 µM: IC50 (second compound 0.00316 µM) | IC50 (second compound 0.01 µM) | IC50 (second compound 0.0316 µM) | IC50 (second compound 0.1 µM) | IC50 (second compound 0.316 µM) | IC50 (second compound 1 µM)
inactive: viability, T/C [1] 9.78% | viability, T/C [7] 10.6% | viability, T/C [8] 11.4% | viability, T/C [13] 11.1% | viability, T/C [19] 11.6% | viability, T/C [20] 10% | viability, T/C [25] 11.5% | viability, T/C [26] 9.36% | viability, T/C [31] 11.7% | viability, T/C [32] 9%
active: viability, T/C [2] 9.47% | viability, T/C [3] 9.65% | viability, T/C [4] 8.55% | viability, T/C [5] 8.68% | viability, T/C [6] 1.56% | viability, T/C [9] 9.42% | viability, T/C [10] 8.7% | viability, T/C [11] 7.16% | viability, T/C [12] 2.11% | viability, T/C [14] 9.59% | viability, T/C [15] 7.86% | viability, T/C [16] 8.01% | viability, T/C [17] 7.19% | viability, T/C [18] 1.24% | viability, T/C [21] 9.28% | viability, T/C [22] 8.9% | viability, T/C [23] 7.73% | viability, T/C [24] 1.12% | viability, T/C [27] 8.28% | viability, T/C [28] 8.77% | viability, T/C [29] 6.8% | viability, T/C [30] 1.12% | viability, T/C [33] 8.85% | viability, T/C [34] 10.9% | viability, T/C [35] 5.99% | viability, T/C [36] 1.09%
